Data set [1] is described as follows: Pharmacokinetics of oxycodone prodrug Compound KC-2 or oxycodone following PO administration to rats. The data set is classed as in vivo. The settings on record: rat, KC-2 20 mg/kg vs oxycodone 10 mg/kg.
Data set [2] in a line: In vitro stability of Compound KC-2 to household chemicals and enzyme preparations. The settings on record: vodka, baking soda, WINDEX, vinegar (RT or 80° C.), GNC Super Digestive, tenderizer, subtilisn (RT); 1 or 24 hr. The data set is classed as physicochemical.
Description: Samples were incubated as described and aliquots removed at 1 hr and 24 hr and stabilized by adding each to a solution of 50% or 100% of 85% phosphoric acid solution to achieve a final pH of less than or equal to pH 4. The stabilized aliquots were then diluted 4- to 6-fold with water, vortex-mixed and applied to HPLC.
For data set [3] the following is noted: male, Sprague Dawley, rat, in vivo.
Data set [4] deals with T1, human μ-opioid receptor (Homo sapiens, UniProt P35372). The data set can be described thus: In vitro human μ-opioid receptor binding assay.
The target of data set [5] is T1, human μ-opioid receptor. In words: cell-based. More on the design: expressed in transfected cells; host or cells: CHO. The conditions noted are these: agonist response, cAMP (HTRF); recombinant CHO cells; 37° C., 10 min; three separate experiments. The protocol: This Example measures the ability of certain compounds of the present disclosure to effect an agonist response when exposed to recombinant human μ-opioid receptor expressed in CHO cells.
A. and Uhl, G. R. (1994). […] The control reaction included 1 μM DAMGO. The reaction mixtures were incubated at 37° C. for 10 min, and the reaction product was cyclic AMP (cAMP). The samples were submitted to homogeneous time resolved fluorescence (HTRF®). EC50 values (concentration producing a half-maximal specific response) were determined by non-linear regression fit using the Hillplot software.
(Time-resolved FRET reads energy transfer from a long-lived donor to a nearby acceptor.)

In the next data set the target is T2, trypsin (Bos taurus, UniProt P00760).
T2 sequence (P00760 24-246): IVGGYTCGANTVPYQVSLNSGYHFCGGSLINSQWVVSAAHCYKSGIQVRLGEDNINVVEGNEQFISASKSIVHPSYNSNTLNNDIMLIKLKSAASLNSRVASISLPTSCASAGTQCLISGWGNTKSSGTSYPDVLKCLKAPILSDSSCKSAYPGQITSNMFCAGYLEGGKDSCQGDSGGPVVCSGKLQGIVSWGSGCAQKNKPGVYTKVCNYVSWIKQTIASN
The data set can be described thus: In vitro trypsin-mediated release of oxycodone from Compound KC-2, without or with Compound 109. The data set is classed as biochemical, bovine. Further details: purchased Sigma-Aldrich T8003; host or cells: bovine pancreas. The settings on record: bovine, trypsin from bovine pancreas, read-out: Pro-drug trypsin half-life, h Average ± sd (converted). From the text:
(§1) The square symbols indicate the disappearance of Compound KC-2, and the triangle symbols depict the appearance of oxycodone, over time under the conditions described in this Example.

The target of data set [6] is T3, trypsin from bovine pancreas (Bos taurus, UniProt P00760).
T3 sequence (P00760 24-246): T2 sequence (P00760 24-246)
The description is as above. The data set is classed as biochemical. Further details: purchased Sigma-Aldrich T8003; host or cells: bovine pancreas. The conditions noted are these: 0.761 mM KC-2; 0.0228 mg/mL trypsin; 37° C.; no trypsin inhibitor.
Description: as §1

Read-outs that look alike come from different tables or passages of the source.

T1 sequence (P35372 whole entry): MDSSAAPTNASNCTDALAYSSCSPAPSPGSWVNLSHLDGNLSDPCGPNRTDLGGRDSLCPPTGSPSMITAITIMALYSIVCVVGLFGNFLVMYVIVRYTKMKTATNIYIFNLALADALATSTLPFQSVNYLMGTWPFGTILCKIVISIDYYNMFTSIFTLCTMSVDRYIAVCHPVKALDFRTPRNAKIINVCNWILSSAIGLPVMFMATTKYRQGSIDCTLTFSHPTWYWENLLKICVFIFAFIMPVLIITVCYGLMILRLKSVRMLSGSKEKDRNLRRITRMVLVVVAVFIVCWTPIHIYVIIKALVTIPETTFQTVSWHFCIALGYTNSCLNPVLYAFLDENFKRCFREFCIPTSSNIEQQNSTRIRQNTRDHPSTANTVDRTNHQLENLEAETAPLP

With `COc1ccc2c3c1O[C@H]1C(OC(=O)N(C)CCNC(=O)[C@H](CCCNC(=N)N)NC(C)=O)=CC[C@@]4(O)[C@@H](C2)N(C)CC[C@]314` [Compound KC-2, Oxycodone 6-(N-methyl-N-(2-N′-acetylarginylamino))ethylcarbamate], the “oxycodone plasma concentrations compared to administration of oxycodone” value in data set [1] was “suppressed Cmax and delayed Tmax compared to administration of oxycodone”. For the same compound, in data set [2], the conversion to oxycodone result is reported as “less than 10%”. In data set [3], the “Compound conc. in CSF” value is given as 61.9 ng/mL, the “Compound conc. in Plasma” value is recorded as 27,200 ng/mL and the Plasma/CSF partitioning coefficient is reported as 439. This compound yielded an IC50 at human μ-opioid receptor [4] of 22 nM. The EC50 at human μ-opioid receptor [5] was 490 nM. In addition, on trypsin (pH 8, with Compound 109 (trypsin inhibitor) 2 µM ([…])), the half-life at 0.761 mM is 116 ± 118 h. For the same compound, the half-life at 0.761 mM at trypsin (pH 8, 0.761 mM KC-2, 0.0228 mg/mL trypsin, 37° C., no trypsin inhibitor) is 5.64 ± 0.26 h. Besides, in data set [6], the “Rate of oxycodone formation, umols/h/umol trypsin Average ± sd” value was 37.4 ± 0.9 umols/h/umol trypsin.

Broadly, the IC50 is the concentration at which inhibition is half-maximal. Low readings indicate inhibition by little substance, high ones a need for much substance. What is called EC50 is the midpoint of the concentration-response curve. One may read the half-life as the time needed for the level to fall by half in the phase considered.

The values are drawn from patent US20110262355A1, “COMPOSITIONS COMPRISING ENZYME-CLEAVABLE OPIOID PRODRUGS AND INHIBITORS THEREOF” (priority 2010, published 2011).
